Results from the NIST ThermoML archive (doi:10.1021/je060271a).
± gives the expanded uncertainty stated by the source.

Conditions: 343.15 K, Liquid, Vibrating tube method

CCCCCCC(=O)OCC(COC(=O)CCCCCC)(COC(=O)CCCCCC)COC(=O)CCCCCC [pentaerythritol tetraheptanoate]
Conditions | mass density [kg/m3]
476.1 kPa | 940.9 ± 1.1
482 kPa | 941 ± 1.1
488.1 kPa | 940.8 ± 1.1
495.4 kPa | 940.9 ± 1.1
502 kPa | 940.9 ± 1.1
508.7 kPa | 940.9 ± 1.1
517.2 kPa | 941 ± 1.1
524.5 kPa | 941 ± 1.1
532 kPa | 941.1 ± 1.1
540.9 kPa | 940.9 ± 1.1
548.4 kPa | 941 ± 1.1
556.3 kPa | 941.1 ± 1.1
566.3 kPa | 941.1 ± 1.1
574.9 kPa | 941 ± 1.1
583.8 kPa | 940.9 ± 1.1
594.9 kPa | 941 ± 1.1
603.8 kPa | 941 ± 1.1
613.5 kPa | 941.1 ± 1.1
625.7 kPa | 941.1 ± 1.1
635.8 kPa | 941.1 ± 1.1
646.5 kPa | 941 ± 1.1
659.6 kPa | 940.9 ± 1.1
671.2 kPa | 941.2 ± 1.1
682.7 kPa | 941.2 ± 1.1
697.1 kPa | 941.1 ± 1.1
710.1 kPa | 941.2 ± 1.1
724 kPa | 941.1 ± 1.1
738.3 kPa | 941 ± 1.1
752.5 kPa | 941.1 ± 1.1
767.1 kPa | 941.2 ± 1.1
785.4 kPa | 941.2 ± 1.1
801.2 kPa | 941.1 ± 1.1
817.7 kPa | 941.3 ± 1.1
834.7 kPa | 941.2 ± 1.1
856.1 kPa | 941.1 ± 1.1
874 kPa | 941.2 ± 1.1
893.8 kPa | 941.3 ± 1.1
917.4 kPa | 941.2 ± 1.1
938.8 kPa | 941.3 ± 1.1
961.5 kPa | 941.3 ± 1.2
984.8 kPa | 941.2 ± 1.1
1008.1 kPa | 941.3 ± 1.1
1031.5 kPa | 941.3 ± 1.1
1061.2 kPa | 941.5 ± 1.1
1083.6 kPa | 941.4 ± 1.2
1098.2 kPa | 941.3 ± 1.1
1114.7 kPa | 941.4 ± 1.1
1128.5 kPa | 941.4 ± 1.1
1142.9 kPa | 941.4 ± 1.1
1159.9 kPa | 941.4 ± 1.1
1174.6 kPa | 941.5 ± 1.1
1189.9 kPa | 941.6 ± 1.1
1208.5 kPa | 941.5 ± 1.1
1224.5 kPa | 941.5 ± 1.1
1241 kPa | 941.6 ± 1.1
1261 kPa | 941.6 ± 1.1
1278.5 kPa | 941.6 ± 1.1
1296.2 kPa | 941.6 ± 1.1
1314.1 kPa | 941.6 ± 1.1
1336.3 kPa | 941.6 ± 1.1
1355.4 kPa | 941.6 ± 1.1
1375.4 kPa | 941.5 ± 1.1
1441 kPa | 941.6 ± 1.1
1467.4 kPa | 941.7 ± 1.1
1489.7 kPa | 941.8 ± 1.1
1512.2 kPa | 941.7 ± 1.1
1535.7 kPa | 941.8 ± 1.1
1564.1 kPa | 941.8 ± 1.1
1588.8 kPa | 941.8 ± 1.1
1613.6 kPa | 941.8 ± 1.1
1644.5 kPa | 941.8 ± 1.1
1671.3 kPa | 941.8 ± 1.1
1699 kPa | 941.9 ± 1.1
1727.1 kPa | 941.8 ± 1.1
1762.2 kPa | 941.9 ± 1.1
1792.2 kPa | 941.9 ± 1.1
1821.9 kPa | 941.8 ± 1.1
1847.4 kPa | 942 ± 1.2
1859.8 kPa | 941.9 ± 1.1
1867.2 kPa | 942 ± 1.1
1876.6 kPa | 942 ± 1.1
1884.6 kPa | 942.1 ± 1.1
1892.9 kPa | 942 ± 1.1
1901.2 kPa | 942 ± 1.2
1911 kPa | 942.1 ± 1.2
1919.1 kPa | 942 ± 1.2
1927.8 kPa | 942.1 ± 1.2
1937.7 kPa | 942.1 ± 1.2
1946.9 kPa | 942.1 ± 1.1
1955.4 kPa | 942.1 ± 1.1
1964.1 kPa | 942.1 ± 1.2
1974.3 kPa | 942.1 ± 1.1
1983.3 kPa | 942.1 ± 1.1
1992.2 kPa | 942 ± 2.2
2001 kPa | 942.1 ± 1.1
2012 kPa | 942.2 ± 1.1
2021 kPa | 942.2 ± 1.1
2030.2 kPa | 942.1 ± 1.1
2040.9 kPa | 942.1 ± 1.1
2050.5 kPa | 942.1 ± 1.1
2059.8 kPa | 942.2 ± 1.1
2069.4 kPa | 942.3 ± 1.1
2079.3 kPa | 942.2 ± 1.1
2090.4 kPa | 942.2 ± 1.1
2099.8 kPa | 942.2 ± 1.1
2111.2 kPa | 942.2 ± 1.1
2121.3 kPa | 942.1 ± 1.1
2130.8 kPa | 942.3 ± 1.1
2142.6 kPa | 942.2 ± 1.1
2152.5 kPa | 942.2 ± 1.1
2162.2 kPa | 942.3 ± 1.1
2172.5 kPa | 942.2 ± 1.1
2184.4 kPa | 942.3 ± 1.1
2195 kPa | 942.3 ± 1.1
2206.1 kPa | 942.2 ± 1.1
2216.5 kPa | 942.3 ± 1.1
2228.9 kPa | 942.4 ± 1.2
2239.4 kPa | 942.3 ± 1.1
2249.8 kPa | 942.2 ± 1.1
2260.8 kPa | 942.3 ± 1.2
2273.8 kPa | 942.3 ± 1.1
2284.7 kPa | 942.3 ± 1.1
2295.3 kPa | 942.4 ± 1.1
2308.5 kPa | 942.3 ± 1.1
2319.6 kPa | 942.4 ± 1.2
2330.5 kPa | 942.4 ± 1.1
2344.6 kPa | 942.3 ± 1.1
2356.7 kPa | 942.4 ± 1.2
2368 kPa | 942.5 ± 1.2
2379.5 kPa | 942.3 ± 1.2
2390.7 kPa | 942.3 ± 1.2
2405 kPa | 942.2 ± 1.1
2416.9 kPa | 942.4 ± 1.1
2428.7 kPa | 942.4 ± 1.1
2442.8 kPa | 942.5 ± 1.2
2454.7 kPa | 942.4 ± 1.2
2466.9 kPa | 942.5 ± 1.1
2481.6 kPa | 942.5 ± 1.1
2493.9 kPa | 942.5 ± 1.2
2506.3 kPa | 942.7 ± 1.2
2518.9 kPa | 942.4 ± 1.2
2534.2 kPa | 942.4 ± 1.2
2546.7 kPa | 942.6 ± 1.1
2559.3 kPa | 942.5 ± 1.2
2574.1 kPa | 942.5 ± 1.2
2587.4 kPa | 942.5 ± 1.2
2600.6 kPa | 942.5 ± 1.1
2616.2 kPa | 942.5 ± 1.1
2629.4 kPa | 942.6 ± 1.2
2642.8 kPa | 942.7 ± 1.2
2656.5 kPa | 942.6 ± 1.1
2672.6 kPa | 942.7 ± 1.2
2686.5 kPa | 942.7 ± 1.2
2700.9 kPa | 942.7 ± 1.2
2714.7 kPa | 942.6 ± 1.2
2731.4 kPa | 942.6 ± 1.2
2745.6 kPa | 942.6 ± 1.1
2759.8 kPa | 942.7 ± 1.2
2777 kPa | 942.7 ± 1.2
2791.7 kPa | 942.6 ± 1.2
2806.1 kPa | 942.7 ± 1.2
2823.8 kPa | 942.7 ± 1.2
2838.2 kPa | 942.7 ± 1.2
2853.3 kPa | 942.7 ± 1.2
2871.1 kPa | 942.8 ± 1.2
2886.2 kPa | 942.8 ± 1.2
2902 kPa | 942.8 ± 1.2
2917.3 kPa | 942.9 ± 1.2
2935.8 kPa | 942.8 ± 1.2
2951.4 kPa | 942.8 ± 1.2
2967.4 kPa | 942.8 ± 1.2
2986.5 kPa | 942.9 ± 1.2
3002.7 kPa | 942.8 ± 1.2
3018.9 kPa | 942.9 ± 1.2
3038.1 kPa | 942.9 ± 1.2
3054.6 kPa | 942.8 ± 1.2
3071.2 kPa | 943 ± 1.2
3088.2 kPa | 943 ± 1.2
3108.3 kPa | 943 ± 1.2
3125.5 kPa | 942.9 ± 1.2
3142.7 kPa | 943 ± 1.2
3163.3 kPa | 942.9 ± 1.2
3181 kPa | 943 ± 1.2
3198.1 kPa | 943 ± 1.2
3219.1 kPa | 943 ± 1.2
3237.1 kPa | 943 ± 1.2
3254.6 kPa | 943 ± 1.2
3276.5 kPa | 943.1 ± 1.2
3294.7 kPa | 943.2 ± 1.2
3313 kPa | 943.2 ± 1.2
3335.1 kPa | 943.2 ± 1.2
3354.3 kPa | 943.1 ± 1.2
3373.4 kPa | 943.2 ± 1.2
3392.3 kPa | 943 ± 1.2
3411.7 kPa | 943.3 ± 1.2
3435.1 kPa | 943.2 ± 1.2
3454.3 kPa | 943.2 ± 1.2
3473.9 kPa | 943.2 ± 1.2
3497.6 kPa | 943.2 ± 1.2
3517.4 kPa | 943.2 ± 1.2
3537.3 kPa | 943.3 ± 1.2
3561.7 kPa | 943.3 ± 1.2
3582.2 kPa | 943.4 ± 1.2
3603.3 kPa | 943.2 ± 1.2
3625.8 kPa | 943.3 ± 1.2
3646.8 kPa | 943.3 ± 1.2
3672.1 kPa | 943.3 ± 1.2
3693.4 kPa | 943.5 ± 1.2
3715.2 kPa | 943.4 ± 1.2
3736.7 kPa | 943.4 ± 1.2
3763.2 kPa | 943.5 ± 1.2
3785.2 kPa | 943.4 ± 1.2
3807.8 kPa | 943.5 ± 1.2
3834.6 kPa | 943.5 ± 1.2
3857.8 kPa | 943.4 ± 1.2
3885.7 kPa | 943.5 ± 1.2
3909.5 kPa | 943.5 ± 1.2
3934.6 kPa | 943.5 ± 1.2
3958.1 kPa | 943.7 ± 1.2
3981.8 kPa | 943.5 ± 1.2
4005.9 kPa | 943.6 ± 1.2
4035 kPa | 943.6 ± 1.2
4059.1 kPa | 943.7 ± 1.2
4088.5 kPa | 943.7 ± 1.2
